Test results from patent US12018024B2, “Compounds and compositions for the treatment of cryptosporidiosis” (Novartis AG, priority 2020, dated 2024).

What was measured:
H.s. PI(4)K = H.s. PI(4)K (Homo sapiens, UniProt Q9UBF8); test: H.s. PI(4)K IC50; assay type: biochemical; conditions: read-out: (d) H.s.* PI(4)K IC50
C. parvum PI(4)K = C. parvum PI(4)K (Cryptosporidium parvum, UniProt Q5CVD3); test: CpPI(4)K enzymatic assay (Transcreener ADP2 FP); assay type: biochemical
Source text: Baculovirus expression and purification of C. parvum phosphatidylinositol 4-kinase: The full-length coding sequence of C. parvum PI(4)K (cgd8_4500, 1114 amino acids) was codon-optimized for baculovirus expression, synthesized and cloned into pFastBac-HTb (Invitrogen 10584-027) in frame with the amino-terminal polyhistidine tag using the BamHI and HindIII restriction sites. Recombinant pFastBacHTb-CpPI(4)K bacmid clones were generated by site-specific transposition in E. coli DH10Bac (Invitrogen 10361-012). The bacmid sequence was confirmed by direct DNA sequencing to confirm a lack of mutations across the whole gene. The subsequent steps for bacmid isolation, transfection and selection of the recombinant viruses were performed according to the manufacturer's protocol (Bac-to-Bac system #10359, Invitrogen).
SF9 cells, cultured in […] serum-free medium, were transfected with recombinant baculovirus at 1/200 (v/v) and incubated at 27° C. for 72 h. The pellets were collected after centrifugation and re-suspended in cell lysis buffer (20 mM Tris-HCl, pH 7.5, 300 mM NaCl, 1 mM DTT, 20 mM imidazole, 0.01% Triton X-100 and 1× complete protease inhibitor cocktail without EDTA (Roche Diagnostics 04693116001)). The cell suspension was lysed by sonication and the clarified supernatant was loaded onto a 1 ml HisTrap affinity column (GE Healthcare) pre-equilibrated with buffer A (20 mM Tris-HCl, pH 7.5, 300 mM NaCl, 1 mM DTT, 20 mM Imidazole, and 1× complete protease inhibitor cocktail without EDTA). The column was washed with buffer B (buffer A containing 45 mM imidazole) and the bound protein of interest was eluted with buffer C (buffer A with 90 mM imidazole). The fractions containing CpPI(4)K were pooled, concentrated using Amicon Ultra-15 and purified by a gel-filtration column (Hi-Load 26/60 Superdex 200, GE Healthcare) equilibrated with 20 mM Tris, pH 7.5, 300 mM NaCl, 1 mM DTT and 1× protease inhibitor cocktail without EDTA. The concentrations of the purified protein (Mw 132.39 kda) was determined by using the protein molar extinction coefficient (ε280 nm=133,810 M^−1 cm^−1). Aliquots were flash frozen in liquid nitrogen and immediately stored at −80° C.
PI(4)K enzymatic Assay The CpPI(4)K enzymatic assay was performed as described earlier with a some modifications (McNamara et al., 2013). Briefly, L-α-phosphatidylinositol (Avanti Polar Lipid 840046), dissolved in 3% n-octylglucoside (Roche Diagnostics 10634425001), was used as the lipid substrate for the PI(4)K activity assay. CpPI(4)K was assayed using Transcreener ADP2 FP detection kit (BellBrook 3010) in a black, solid 384-well plate (Corning 3575). The final assay volume was 10 μl and contained 3 nM of the respective CpPI(4)K construct in 10 mM Tris, pH 7.5, 1 mM DTT, 3 μM ATP, 5 mM Mn2+, 0.05% Triton X-100 and 10 μM phosphatidylinositol/octylglucoside. The enzyme reaction was performed for 50 minutes at room temperature and was stopped by adding 10 μl of detection mix containing 1× stop buffer (50 mM HEPES, pH7.5, 400 mM NaCl, 20 mM EDTA, and 0.02% Brij-35), 2 nM AMP Alexa Fluor 633 tracer, and 20 μg ml^−1 ADP antibody. Fluorescence polarization measurements were performed on the Infinite M1000 plate reader (Tecan) with λex=635 nm and λem=680 nm (20-nm bandwidth). IC50 values were calculated using Graphpad Prism software.

Cryptosporidium parvum = test: Cytopathic effect (CPE) based assay, C. parvum-infected HCT-8 cells; assay type: cell-based; conditions: HCT-8, 48 h, read-out: (b) C.p.* CPE EC50 (μM)
Procedure: Human ileocecal colorectal adenocarcinoma cells (HCT-8 [HRT-18] ATCC, CCL-34) were maintained in T-175 flasks (Corning, 431080) in complete growth medium (RPMI-1640 medium (Gibco, 11875) supplemented with 10% heat-inactivated horse serum (Gibco, 26050), 1× MEM non-essential amino acids (Gibco, 11140), 10 mM HEPES (Gibco, 15630), 100 units/mL penicillin, and 100 units/mL streptomycin) at 37° C. and 5% CO2 in a humidified incubator. Cultures were passaged twice weekly using 10 mL of 1× Phosphate-Buffered Saline (PBS) without Ca^2+ and Mg^2+ (Gibco, 20012) for washing and 3-5 mL per T-175 flask of TrypLE Express Enzyme (Gibco, 12604) for dissociation of adherent cells.
Cryptosporidium parvum oocysts purchased from the Sterling Laboratory, University of Arizona (Iowa isolate) were purified from infected calf feces using discontinuous sucrose and cesium chloride centrifugation gradients and stored in PBS solution containing 0.01% Tween 20, 100 units/mL penicillin and 100 units/mL gentamicin.
Excystaion and infection: Excystation and infection protocols were developed following established methods with some modifications (Gut & Nelson, 1999, Upton et al., 1995, Bessoff et al., 2013). Briefly, oocysts were primed in 1 mL of 10 mM hydrochloric acid in 1× Hank's Balanced Salt Solution (HBSS) (Gibco, 14025) for 10 minutes with agitation at 1000 rpm, 37° C. on an Eppendorf thermomixer, then washed twice with 1 mL of room temperature non-acidic 1× HBSS by centrifugation at 13,000 rpm for 3 minutes at 25° C. Primed oocysts were further excysted at a concentration of 1×10^6 oocysts/μL in parasite infection medium consisting of a pre-warmed and pre-gassed 1:1 formulation of Leibovitz's L-15 medium (Gibco, 11415) and UltraCULTURE medium (Lonza, 12-725F) supplemented with 2 mM sodium taurocholate (Sigma, 86339-1), 10% heat-inactivated horse serum, and 200 μM L-ascorbic acid (Sigma, 95210) at 25° C. for 10 minutes. HCT-8 monolayer cells were infected with excysted cryptosporidium at a specified multiplicity of infection (MOI). All dilutions for subsequent assays were performed in parasite infection medium without sodium taurocholate. Pre-excysted oocysts were enumerated microscopically using a C-Chip disposable hemocytometer (NanoEnTek, DHC-N01).
Compound and assay plate preparation: Compound powders were dissolved in neat DMSO (Fisher, D4121) to 10 mM and stored at 4° C. prior to dilution into source plates. Dilutions were carried out using a Microlab STAR liquid handler (Hamilton) to obtain compound source plates containing the ten-point or eight-point three fold dilutions starting from 10 mM in duplicates. Source plates were stored at 4° C. prior to spotting into assay plates. Before administration, all compound source plates were equilibrated to room temperature. A specified volume of compounds from source plate were spotted to assay plate using an Echo Acoustic liquid handler (LABCYTE, 550) so that the final DMSO concentration was less than 0.5%. Each assay plate a specified number of DMSO-treated negative control wells and a well-studied potent active compound at 100 nM as positive control. As a quality control, all positive and negative-control wells were used to calculate a Z′-value and signal to noise ratio (S:N) for each plate.
Cryptosporidium spp are obligate-intracellular parasites that infect intestinal epithelial cells and the host cell is killed upon parasite egress. […] The loss of epithelial cells is due to both rapid parasite invasion/multiplication/egress and also pro-inflammatory immune response (Adams et al., 1994, Griffiths et al., 1994). We have observed a consistent cytopathic effect (CPE) in HCT-8 cells with C. spp infection the loss of viability of the host cells using CellTiter-Glo reagent.
Confluent HCT-8 cells in T-175 flasks were directly infected with excysted oocysts at an MOI (host to parasite) of 1:2 for C. parvum and 1:4 for C. hominis. […]

Chain of C. parvum PI(4)K (Q5CVD3 entry or part of it): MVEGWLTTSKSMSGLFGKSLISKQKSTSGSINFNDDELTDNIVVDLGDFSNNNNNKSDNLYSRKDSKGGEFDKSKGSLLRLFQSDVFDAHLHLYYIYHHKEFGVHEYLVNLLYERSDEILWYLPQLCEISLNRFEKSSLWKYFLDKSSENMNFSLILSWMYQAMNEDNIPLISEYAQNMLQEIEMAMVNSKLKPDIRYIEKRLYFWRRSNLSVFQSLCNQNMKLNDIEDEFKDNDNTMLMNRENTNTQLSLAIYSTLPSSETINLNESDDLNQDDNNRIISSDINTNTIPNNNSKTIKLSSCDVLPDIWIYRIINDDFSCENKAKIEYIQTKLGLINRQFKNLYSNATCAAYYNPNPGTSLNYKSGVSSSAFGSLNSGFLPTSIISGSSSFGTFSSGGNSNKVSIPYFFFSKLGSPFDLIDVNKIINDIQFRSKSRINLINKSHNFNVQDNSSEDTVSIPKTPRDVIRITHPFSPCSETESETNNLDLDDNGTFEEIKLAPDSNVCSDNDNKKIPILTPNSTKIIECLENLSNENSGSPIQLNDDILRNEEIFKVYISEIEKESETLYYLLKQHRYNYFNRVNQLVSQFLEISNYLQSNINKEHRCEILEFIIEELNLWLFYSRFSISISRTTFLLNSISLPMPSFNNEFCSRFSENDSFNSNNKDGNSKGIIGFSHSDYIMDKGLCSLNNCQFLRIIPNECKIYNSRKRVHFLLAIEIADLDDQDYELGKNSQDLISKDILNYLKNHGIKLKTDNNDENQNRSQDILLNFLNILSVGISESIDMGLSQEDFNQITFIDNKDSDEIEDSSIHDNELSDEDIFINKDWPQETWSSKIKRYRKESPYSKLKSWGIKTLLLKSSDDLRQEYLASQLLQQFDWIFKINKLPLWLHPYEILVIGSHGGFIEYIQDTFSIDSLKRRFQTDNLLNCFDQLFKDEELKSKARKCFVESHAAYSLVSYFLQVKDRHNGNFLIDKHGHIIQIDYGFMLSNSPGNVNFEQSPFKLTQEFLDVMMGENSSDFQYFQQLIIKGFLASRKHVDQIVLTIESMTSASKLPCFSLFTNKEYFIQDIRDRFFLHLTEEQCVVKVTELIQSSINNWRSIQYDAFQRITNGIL
Chain of H.s. PI(4)K (Q9UBF8 2-816 limits assumed): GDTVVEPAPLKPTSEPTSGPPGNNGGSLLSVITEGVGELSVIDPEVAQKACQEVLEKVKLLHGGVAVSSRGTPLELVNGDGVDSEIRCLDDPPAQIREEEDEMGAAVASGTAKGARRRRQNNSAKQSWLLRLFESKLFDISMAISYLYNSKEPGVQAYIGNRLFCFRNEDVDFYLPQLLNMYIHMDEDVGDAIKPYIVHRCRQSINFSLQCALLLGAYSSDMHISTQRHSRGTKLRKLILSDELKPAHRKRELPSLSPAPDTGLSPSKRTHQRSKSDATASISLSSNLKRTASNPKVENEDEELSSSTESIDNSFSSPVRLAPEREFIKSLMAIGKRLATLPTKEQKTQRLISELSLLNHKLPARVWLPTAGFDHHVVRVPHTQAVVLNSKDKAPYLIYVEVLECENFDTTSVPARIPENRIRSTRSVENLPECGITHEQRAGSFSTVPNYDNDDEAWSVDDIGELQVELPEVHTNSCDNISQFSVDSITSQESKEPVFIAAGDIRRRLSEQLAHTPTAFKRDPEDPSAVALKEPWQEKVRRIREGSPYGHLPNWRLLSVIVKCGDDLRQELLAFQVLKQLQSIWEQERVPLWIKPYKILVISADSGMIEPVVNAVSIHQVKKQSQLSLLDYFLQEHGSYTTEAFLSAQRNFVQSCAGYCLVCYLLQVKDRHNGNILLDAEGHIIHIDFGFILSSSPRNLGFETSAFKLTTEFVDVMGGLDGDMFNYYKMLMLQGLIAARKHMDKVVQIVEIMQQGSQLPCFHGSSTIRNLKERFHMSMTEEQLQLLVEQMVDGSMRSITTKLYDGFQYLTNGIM

SMILES	IC50 (H.s. PI(4)K)	IC50 (C. parvum PI(4)K)	EC50 (Cryptosporidium parvum)
CCOC(=O)OC(C)OC(=O)c1cc(N(C)C(=O)c2ccn3ncc(-c4ccc(C(N)=O)cc4)c3c2)ccc1Cl (racemic) [Example 1.14, rac-1-((Ethoxycarbonyl)oxy)ethyl 5-(3-(4-carbamoylphenyl)-N-methylpyrazolo[1,5-a]pyridine-5-carboxamido)-2-chlorobenzoate]	> 1000 nM	100 to 1000 nM	> 1 µM
CN(C(=O)c1ccn2ncc(-c3ccc(C(N)=O)cc3)c2c1)c1ccc(Cl)c(C(=O)OCC2CCCO2)c1 (racemic) [Example 1.15, rac-(Tetrahydrofuran-2-yl)methyl 5-(3-(4-carbamoylphenyl)-N-methylpyrazolo[1,5-a]pyridine-5-carboxamido)-2-chlorobenzoate]		< 100 nM	0.1 to 1 µM
CN(C(=O)c1ccn2ncc(-c3ccc(C(N)=O)cc3)c2c1)c1ccc(Cl)c(C(=O)OC(C)(C)C)c1 [Example 1.02, tert-Butyl 5-(3-(4-carbamoylphenyl)-N-methylpyrazolo[1,5-a]pyridine-5-carboxamido)-2-chlorobenzoate]		< 100 nM	0.1 to 1 µM
CSCCOC(=O)c1cc(N(C)C(=O)c2ccn3ncc(-c4ccc(C(N)=O)cc4)c3c2)ccc1Cl [Example 1.04, 2-(Methylthio)ethyl 5-(3-(4-carbamoylphenyl)-N-methylpyrazolo[1,5-a]pyridine-5-carboxamido)-2-chlorobenzoate]		< 100 nM	> 1 µM
CC(C)COC(=O)c1cc(N(C)C(=O)c2ccn3ncc(-c4ccc(C(N)=O)cc4)c3c2)ccc1Cl [Example 1.05, Isobutyl 5-(3-(4-carbamoylphenyl)-N-methylpyrazolo[1,5-a]pyridine-5-carboxamido)-2-chlorobenzoate]		< 100 nM	0.1 to 1 µM
COC(=O)COC(=O)c1cc(N(C)C(=O)c2ccn3ncc(-c4ccc(C(N)=O)cc4)c3c2)ccc1Cl [Example 1.06, 2-Methoxy-2-oxoethyl 5-(3-(4-carbamoylphenyl)-N-methylpyrazolo[1,5-a]pyridine-5-carboxamido)-2-chlorobenzoate]		< 100 nM	> 1 µM
CN(C(=O)c1ccn2ncc(-c3ccc(C(N)=O)cc3)c2c1)c1ccc(Cl)c(C(=O)OCc2cncs2)c1 [Example 1.07, Thiazol-5-ylmethyl 5-(3-(4-carbamoylphenyl)-N-methylpyrazolo[1,5-a]pyridine-5-carboxamido)-2-chlorobenzoate]		< 100 nM	0.1 to 1 µM
CCOC(=O)c1cc(N(C)C(=O)c2ccn3ncc(-c4ccc(C(N)=O)cc4)c3c2)ccc1Cl [Example 1.09, Ethyl 5-(3-(4-carbamoylphenyl)-N-methylpyrazolo[1,5-a]pyridine-5-carboxamido)-2-chlorobenzoate]		< 100 nM	0.1 to 1 µM
CN(C(=O)c1ccn2ncc(-c3ccc(C(N)=O)cc3)c2c1)c1ccc(Cl)c(C(=O)OCC(F)(F)F)c1 [Example 1.10, 2,2,2-Trifluoroethyl 5-(3-(4-carbamoylphenyl)-N-methylpyrazolo[1,5-a]pyridine-5-carboxamido)-2-chlorobenzoate]		< 100 nM	> 1 µM
COCCOC(=O)c1cc(N(C)C(=O)c2ccn3ncc(-c4ccc(C(N)=O)cc4)c3c2)ccc1Cl [Example 1.11, 2-Methoxyethyl 5-(3-(4-carbamoylphenyl)-N-methylpyrazolo[1,5-a]pyridine-5-carboxamido)-2-chlorobenzoate]		< 100 nM	0.1 to 1 µM
CN(C)C(=O)COC(=O)c1cc(N(C)C(=O)c2ccn3ncc(-c4ccc(C(N)=O)cc4)c3c2)ccc1Cl [Example 1.12, 2-(Dimethylamino)-2-oxoethyl 5-(3-(4-carbamoylphenyl)-N-methylpyrazolo[1,5-a]pyridine-5-carboxamido)-2-chlorobenzoate]		< 100 nM	0.1 to 1 µM
CC(C)OC(=O)c1cc(N(C)C(=O)c2ccn3ncc(-c4ccc(C(N)=O)cc4)c3c2)ccc1Cl [Example 1.13, Isopropyl 5-(3-(4-carbamoylphenyl)-N-methylpyrazolo[1,5-a]pyridine-5-carboxamido)-2-chlorobenzoate]		< 100 nM	0.1 to 1 µM
CNC(=O)c1ccc(-c2cnn3ccc(C(=O)N(C)c4ccc(Cl)c(C(=O)OC(C)(C)C)c4)cc23)cc1 [Example 1.17, t-Butyl 2-chloro-5-(N-methyl-3-(4-(methylcarbamoyl)phenyl)pyrazolo[1,5-a]pyrdine-5-carboxamido)benzoate]		< 100 nM	< 0.1 µM
CNC(=O)c1ccc(-c2cnn3ccc(C(=O)N(C)c4ccc(OC(F)(F)F)c(C(=O)OC)c4)cc23)cc1 [Example 1.26, Methyl 5-(N-methyl-3-(4-(methylcarbamoyl)phenyl)pyrazolo[1,5-a]pyridine-5-carboxamido)-2-(trifluoromethoxy)benzoate]		< 100 nM	0.1 to 1 µM
